Test results from patent US20140206681A1, “BTK INHIBITORS” (priority 2013, published 2014).
pIC50: −log10 of the molar value.

Molecular target: T1, BTK enzyme (recombinant full-length BTK, hBTK) (Homo sapiens, UniProt Q06187)
T1 construct: recombinant protein from baculovirus-transfected Sf9 cells: full-length BTK, 6HIS-tag cleaved; 6HIS (cleaved yes); made in house; host or cells: baculovirus-transfected Sf9 cells
Experiment: BTK enzyme activity assay, LANCE TR-FRET
Type: biochemical
Conditions: 50 pM hBTK, 2 μM biotin-A5-peptide, 25 μM ATP; 60 min compound & enzyme incubation; read-out: IC50 BTK activity value

T1 sequence (Q06187 whole entry): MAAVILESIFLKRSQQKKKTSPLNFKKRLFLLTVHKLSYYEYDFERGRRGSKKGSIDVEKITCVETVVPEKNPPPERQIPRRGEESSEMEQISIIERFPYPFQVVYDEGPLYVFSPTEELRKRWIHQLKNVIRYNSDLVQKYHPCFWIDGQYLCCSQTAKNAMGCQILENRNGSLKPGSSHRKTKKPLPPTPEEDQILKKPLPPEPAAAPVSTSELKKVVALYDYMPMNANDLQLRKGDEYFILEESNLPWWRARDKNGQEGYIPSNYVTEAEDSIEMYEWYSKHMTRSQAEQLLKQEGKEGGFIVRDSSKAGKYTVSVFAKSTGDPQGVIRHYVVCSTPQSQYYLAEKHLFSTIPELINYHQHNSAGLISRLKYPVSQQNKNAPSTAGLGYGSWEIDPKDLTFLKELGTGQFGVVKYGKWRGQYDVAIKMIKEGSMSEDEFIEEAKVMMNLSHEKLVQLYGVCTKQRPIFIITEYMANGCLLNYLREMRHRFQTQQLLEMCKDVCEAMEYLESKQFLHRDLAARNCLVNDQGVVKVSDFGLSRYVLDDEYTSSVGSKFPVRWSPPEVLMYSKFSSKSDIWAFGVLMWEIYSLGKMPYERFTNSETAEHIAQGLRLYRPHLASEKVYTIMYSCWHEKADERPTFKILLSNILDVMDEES

pIC50	Compound
9.27	CCOc1cc(C(=O)Nc2cc(C(F)(F)F)ccn2)ccc1-c1nc([C@@H]2CC[C@H]3CC(C)(C)C(=O)N3C2)n2ccnc(N)c12 [Example 113, 4-{8-amino-3-[(6R,8aS)-2,2-dimethyl-3-oxooctahydroindolizin-6-yl]imidazo[1,5-a]pyrazin-1-yl}-3-ethoxy-N-[4-(trifluoromethyl)pyridin-2-yl]benzamide]
7.91	Cc1c(C(F)(F)F)ccnc1NC(=O)c1ccc(-c2nc([C@@H]3CC[C@H]4CCC(=O)N4C3)n3ccnc(N)c23)cc1 [Example 122, 4-{8-amino-3-[(6R,8aS)-3-oxooctahydroindolizin-6-yl]imidazo[1,5-a]pyrazin-1-yl}-N-[3-methyl-4-(trifluoromethyl)pyridin-2-yl]benzamide]
6.12	Nc1nccn2c([C@@H]3CC[C@H]4CCC(=O)N4C3)nc(-c3ccc(C(=O)Nc4cc(C(F)(F)F)cc(C5CCC5)n4)cc3)c12 [Example 126, 4-{8-amino-3-[(6R,8aS)-3-oxooctahydroindolizin-6-yl]limidazo[1,5-a]pyrazin-1-yl}-N-[6-cyclobutyl-4-(trifluoromethyl)pyridin-2-yl]benzamide]
9.26	CCOc1cc(C(=O)Nc2cc(C(F)(F)F)ccn2)c(F)cc1-c1nc([C@@H]2CC[C@H]3CCC(=O)N3C2)n2c(Cl)cnc(N)c12 [Example 133, 4-{8-amino-5-chloro-3-[(6R,8aS)-3-oxooctahydroindolizin-6-yl]imidazo[1,5-a]pyrazin-1-yl}-5-ethoxy-2-fluoro-N-[4-(trifluoromethyl)pyridin-2-yl]benzamide]
9.66	COc1cc(C(=O)Nc2cc(C(F)(F)F)ccn2)ccc1-c1nc([C@@H]2CC[C@H]3CCC(=O)N3C2)n2c(Cl)cnc(N)c12 [Example 143, 4-{8-amino-5-chloro-3-[(6R,8aS)-3-oxooctahydroindolizin-6-yl]imidazo[1,5-a]pyrazin-1-yl}-3-methoxy-N-[4-(trifluoromethyl)pyridin-2-yl]benzamide]
9.30	Nc1ncc(Cl)n2c([C@@H]3CC[C@H]4CCC(=O)N4C3)nc(-c3ccc(C(=O)Nc4cc(C(F)(F)F)ccn4)cc3OC3CC3)c12 [Example 144, 4-{8-amino-5-chloro-3-[(6R,8aS)-3-oxooctahydroindolizin-6-yl]imidazo[1,5-a]pyrazin-1-yl}-3-(cyclopropyloxy)-N-[4-(trifluoromethyl)pyridin-2-yl]benzamide]
9.09	Cc1cnc(NC(=O)c2ccc(-c3nc([C@@H]4CC[C@H]5CCC(=O)N5C4)n4c(Cl)cnc(N)c34)cc2)s1 [Example 154, 4-{8-amino-5-chloro-3-[(6R,8aS)-3-oxooctahydroindolizin-6-yl]imidazo[1,5-a]pyrazin-1-yl}-N-(5-methyl-1,3-thiazol-2-yl)benzamide]
9.39	Cn1nc(NC(=O)c2ccc(-c3nc([C@@H]4CC[C@H]5CCC(=O)N5C4)n4ccnc(N)c34)cc2)cc1C(F)(F)F [Example 171, 4-{8-amino-3-[(6R,8aS)-3-oxooctahydroindolizin-6-yl]imidazo[1,5-a]pyrazin-1-yl}-N-[1-methyl-5-(trifluoromethyl)-1H-pyrazol-3-yl]benzamide]
7.29	Nc1nccn2c([C@@H]3CC[C@H]4CCC(=O)N4C3)nc(-c3ccc(C(=O)Nc4ncc[nH]4)cc3)c12 [Example 172, 4-{8-amino-3-[(6R,8aS)-3-oxooctahydroindolizin-6-yl]imidazo[1,5-a]pyrazin-1-yl}-N-1H-imidazol-2-ylbenzamide]
6.61	Nc1nccn2c([C@@H]3CC[C@H]4CCC(=O)N4C3)nc(-c3ccc(C(=O)Nc4cc(C(F)(F)F)on4)cc3)c12 [Example 173, 4-{8-amino-3-[(6R,8aS)-3-oxooctahydroindolizin-6-yl]imidazo[1,5-a]pyrazin-1-yl}-N-[5-(trifluoromethyl)isoxazol-3-yl]benzamide]
6.62	Nc1nccn2c([C@@H]3CC[C@H]4CCC(=O)N4C3)nc(-c3ccc(C(=O)Nc4cc(C(F)(F)F)no4)cc3)c12 [Example 174, 4-{8-amino-3-[(6R,8aS)-3-oxooctahydroindolizin-6-yl]imidazo[1,5-a]pyrazin-1-yl}-N-[3-(trifluoromethyl)isoxazol-5-yl]benzamide]
